The results in this text go back to EP4678629A1, “IONIZABLE LIPID MOLECULE, PREPARATION METHOD THEREFOR AND USE THEREOF” (Maxirna (Shanghai) Pharmaceutical Co., Ltd., priority 2023, dated 2024).

SMILES strings stand for the structures.

For one data set, the system named is DC2.4 cells. Description: In vitro transfection of cells with eGFP-mRNA lipid nanoparticle (LNP preparation), fluorescence imaging and flow cytometry. In kind it is cell-based, mouse. To be noted: DC2.4 cells, 200 ng of mRNA per well, after 24 hours; for Positive rate, %: eGFP positivity rate. The essentials: (§1)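 Mouse bone marrow-derived DC2.4 dendritic cells seeded at 2 × 10^5 cells/well in DMEM with 10% FBS, transfected with eGFP-mRNA LNPs the next day at 37 °C, 5% CO2. After 24 hours, viability, eGFP-positive rate and mean fluorescence intensity read by fluorescence imaging and flow cytometry.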

The next data set has as its system mice. Description: In vivo transfection with Fluc-mRNA lipid nanoparticle (LNP preparation), live imaging of fluorescence intensity. To be noted: 0.5 mg/kg. The procedure:
According to the method described in Example II , LNP lipid nanoparticles of Fluc-mRNA (Maxirna FLuc mRNA, 1 mg/mL), SM-102 (CAS number: 2089251-47-6, A.V.T (Shanghai) Pharmaceutical Co., Ltd.), and positive control 1 (US10195156B2, it was prepared according to the method described in the above embodiment, the main difference lay in replacing 2-((3-aminopropyl)amino)ethane-1-ol with 2-((2-aminoethyl)amino)ethane-1-ol, the structure was as shown in FIG. 1) were prepared respectively. Cholesterol (Chol), DSPC, DOPE, and DMG-PEG2000 were purchased from A.V.T (Shanghai) Pharmaceutical Co., Ltd. Mice were randomly selected, and the lipid nanoparticles were injected intravenously and intramuscularly (4 mice per group) at a dosage of 0.5 mg/kg. Tris and Fluc-mRNA were directly injected as controls. After 6 hours, 200 ul of 10 mg/ml D-luciferin potassium salt was respectively injected into each mouse through the tail vein. After 10 minutes, the mice were placed under a live imaging system to observe the total fluorescence intensity of each mouse and take photos for recording. After 24 hours, the mice were placed under the live imaging system to observe the total fluorescence intensity of each mouse and take photos for recording. Table 2: Preparation parameters of each LNP
(§2) LNP lipid nanoparticles of Fluc-mRNA were respectively prepared using the method described in Example II. Mice were randomly selected, and the lipid nanoparticles were injected intramuscularly (2 mice per group) at a dosage of 0.5 mg/kg. Tris was directly injected as a control. After 6 hours, 200 ul of 10 mg/ml D-luciferin potassium salt was respectively injected into each mouse through the tail vein. After 10 minutes, the mice were placed under a live imaging system to observe the total fluorescence intensity of each mouse and take photos for recording. After 24 hours, the mice were placed under the live imaging system to observe the total fluorescence intensity of each mouse and take photos for recording. Table 3: Preparation parameters of each LNP
as §2, with “II .” for “II.”, “(3” for “(2”, “4:” for “3:”

Data set [1] in a line: Size and polydispersity index (PDI) of the lipid nanoparticle by dynamic light scattering. It counts as physicochemical. To be noted: LNP encapsulating eGFP mRNA, ionizable lipid/DOPE/cholesterol/DMG-PEG2000 50/10/48.25/1.25 mol%, N/P 12; for Particle size: in nm (unit assumed). The essentials: (§3)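 LNPs were made by microfluidic mixing of ionizable lipid/DOPE/cholesterol/DMG-PEG2000 (50/10/48.25/1.25 mol%) in ethanol with eGFP mRNA in 20 mM citrate pH 6.1, N/P 12, then ultrafiltered into DPBS and 0.2 µm filtered. Size and PDI by DLS at 173° backscatter; encapsulation by Ribogreen.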

The nature of data set [2]: Encapsulation efficiency of the lipid nanoparticle (eGFP mRNA) by Ribogreen method. It counts as physicochemical. The following applies: LNP encapsulating eGFP mRNA, ionizable lipid/DOPE/cholesterol/DMG-PEG2000 50/10/48.25/1.25 mol%, N/P 12. The essentials: as §3
Data set [3] can be described thus: In vitro transfection of cells with eGFP-mRNA lipid nanoparticle (LNP preparation), fluorescence imaging and flow cytometry. It counts as cell-based, mouse. The following applies: mouse, dc2.4 cells, 200 ng of mRNA per well, after 24 hours; read-out: Cell viability, %. The essentials:
as §1

Setting [4] is: Fluc-mRNA LNP of Table 2 (DOPE), intramuscular.

For `CCCCC/C=C\C/C=C\CCCCCCCCOC(=O)CCCN(CCCO)CCCN(CCCC(=O)OCCCCCCCC/C=C\C/C=C\CCCCC)CCCC(=O)OCCCCCCCC/C=C\C/C=C\CCCCC` [Example 81, Di((9Z,12Z)-octadeca-9,12-dien-1-yl)4,4'-((3-((3-hydroxypropyl)(4-(((9Z,12Z)-octadeca-9,12-dien-1-yl)oxo)-4-oxobutyl)amino)propyl)azanediyl)dibutanoate], the “Cell viability, %” value in the data set on DC2.4 cells (1440 min) worked out at 76.4%. Moreover, the “Positive rate, %” value in the data set with DC2.4 cells was 93.39%. Also, in the data set with mice (Fluc-mRNA LNP of Table 3 (DSPC), intramuscular, 6 and 24 hours), the whole-body expression entry is recorded as “even better than SM-102”. Also, in data set [1], the Particle size is on record as 99.10. In addition, the “Encapsulation rate, %” value in data set [2] came out at 99.10%.

Regarding `CCCCCC/C=C\COC(=O)CCCCCCCN(CCCCCCCC(=O)OC/C=C\CCCCCC)CCCN(CCCCCCCC(=O)OC/C=C\CCCCCC)CCCCCCCC(=O)OC/C=C\CCCCCC` [Example 21, Tetra((Z)-non-2-en-1-yl)8,8',8",8‴-(propane-1,3-diyldi(azanetriyl))tetraoctanoate], in the data set with mice (setting [4]), the “expression in the chest and abdomen” value is listed as “much lower than that of SM-102”; the “fluorescence intensity, intramuscular injection administration” value was “still maintain high fluorescence intensity”. Besides, in the data set on mice (Fluc-mRNA LNP of Table 2 (DOPE), intravenous and intramuscular injection, 6 and 24 hours), the fluorescence intensity entry is “stronger than that of positive control 1 and comparable to SM-102”.

What is called viability is a per cent measure of how many cells are alive, often set against a control. For `CCCCCCCCCCCCCOC(=O)CCN(CCCO)CCCN(CCC(=O)OCCCCCCCCCCCCC)CCC(=O)OCCCCCCCCCCCCC` [Example 71, Ditridecyl 3,3'-((3-((3-hydroxypropyl)(3-oxo-3-(tridecyloxy)propyl)amino)propyl)azanediyl)dipropionate], the “Positive rate, %” value in the data set on DC2.4 cells came out at 98.99%. The viability at 24 h in data set [3] amounted to 97.3%. In data set [1], the PDI is reported as 85.88 and the Particle size was found to be 98.30. Further, the “Encapsulation rate, %” value in data set [2] stood at 98.30%.

For `CCCCCCCCCCCCOC(=O)CCCCCCN(CCCCO)CCCN(CCCCCCC(=O)OCCCCCCCCCCCC)CCCCCCC(=O)OCCCCCCCCCCCC` [Example 49, Didodecyl 7,7'-((3-((7-(dodecyloxy)-7-oxoheptyl)(4-hydroxybutyl)amino)propyl)azanediyl)diheptanoate], the “Positive rate, %” value in the data set with DC2.4 cells is recorded as 97.38%. Also, in data set [3], the viability at 24 h is 91.6%. In addition, in data set [1], the PDI was 0.15 and the Particle size is given as 74.58. The “Encapsulation rate, %” value in data set [2] is on record as 99.79%.

For `CCCCCCCCCCCCCOC(=O)CCCCN(CCCCO)CCCN(CCCCC(=O)OCCCCCCCCCCCCC)CCCCC(=O)OCCCCCCCCCCCCC` [Example 41, Ditridecyl 5,5'-((3-((4-hydroxybutyl)(5-oxo-5-(tridecyloxy)pentyl)amino)propyl)azadiyl)dipentanoate], in the data set with DC2.4 cells, the “Positive rate, %” value is 96.42%. The viability at 24 h in data set [3] worked out at 97.2%. Also, in data set [1], the PDI is 0.13 and the Particle size is recorded as 71.17. In data set [2], the “Encapsulation rate, %” value is on record as 96.67%.

With `CCCCCCCCCCCCOC(=O)CCCCCCCN(CCCCO)CCCN(CCCCCCCC(=O)OCCCCCCCCCCCC)CCCCCCCC(=O)OCCCCCCCCCCCC` [Example 52, Didodecyl 8,8'-((3-((8-(dodecyloxy)-8-oxooctyl)(4-hydroxybutyl)amino)propyl)azanediyl)dioctanoate], in the data set on DC2.4 cells, the “Positive rate, %” value was found to be 85.37%. Also, the viability at 24 h in data set [3] worked out at 82.9%. In data set [1], this molecule had a PDI of 0.17 and a Particle size of 69.63. In data set [2], the “Encapsulation rate, %” value was 99.18%.

As for `CC(C)=CCC/C(C)=C/COC(=O)CCCCCCCN(CCO)CCCN(CCCCCCCC(=O)OC/C=C(\C)CCC=C(C)C)CCCCCCCC(=O)OC/C=C(\C)CCC=C(C)C` [Example 3, Di((E)-3,7-dimethyloctan-2,6-dien-1-yl)8,8'-((3-((8-(((E)-3,7-dimethyloctan-2,6-dien-1-yl)oxo)-8-oxooctyl)(2-hydroxyethyl)amino)propyl)azanediyl)dioctanoate], the “Positive rate, %” value in the data set with DC2.4 cells was determined as 93.43%. Besides, in data set [3], the viability at 24 h stood at 68.6%. In data set [1], this molecule returned a PDI of 0.12 and a Particle size of 92.13. The “Encapsulation rate, %” value in data set [2] is on record as 95.96%.

With `CCCCCCCCCCCCCCOC(=O)CCCCCCN(CCCCO)CCCN(CCCCCCC(=O)OCCCCCCCCCCCCCC)CCCCCCC(=O)OCCCCCCCCCCCCCC` [Example 58, Ditetradecyl 7,7'-((3-((4-hydroxybutyl)(7-oxo-7-(tetradecyloxy)heptyl)amino)propyl)azanediyl)diheptanoate], the “Positive rate, %” value in the data set on DC2.4 cells is on record as 87.44%. In data set [3], the viability at 24 h was 63.2%. In data set [1], the PDI came out at 0.16 and the Particle size is given as 79.13. The “Encapsulation rate, %” value in data set [2] worked out at 99.17%.

With `CCCCCCCCCCCCCOC(=O)CCCCCCCN(CCCO)CCCN(CCCCCCCC(=O)OCCCCCCCCCCCCC)CCCCCCCC(=O)OCCCCCCCCCCCCC` [Example 29], in the data set with DC2.4 cells, the “Positive rate, %” value is recorded as 95.33%. Moreover, the viability at 24 h in data set [3] was 96.7%. In addition, in data set [1], the PDI worked out at 0.16. In addition, the “Encapsulation rate, %” value in data set [2] is 99.55%.

Take `CCCCCCCOC(=O)CCCCCCCN(CCO)CCCN(CCCCCCCC(=O)OCCCCCCC)CCCCCCCC(=O)OCCCCCCC` [Example 4, Diheptyl 8,8'-((3-((8-(heptyloxy)-8-oxooctyl)(2-hydroxyethyl)amino)propyl)azanediyl)dioctanoate]: in the data set with DC2.4 cells, the “Positive rate, %” value came to 78.26%. Also, the viability at 24 h in data set [3] worked out at 75.9%. The PDI in data set [1] is recorded as 0.25. The “Encapsulation rate, %” value in data set [2] is on record as 60.89%.

Take `CC/C=C\COC(=O)CCCCCCCN(CCO)CCCN(CCCCCCCC(=O)OC/C=C\CC)CCCCCCCC(=O)OC/C=C\CC` [Example 10, Di((Z)-pent-2-en-1-yl)8,8'-((3-((2-hydroxyethyl)(8-oxo-8-(((Z)-pent-2-en-1-yl)oxo)octyl)amino)propyl)azanediyl)dioctanoate]: the “Positive rate, %” value in the data set with DC2.4 cells came to 95.39%. Moreover, the viability at 24 h in data set [3] worked out at 95%. In data set [1], this molecule registered a PDI of 0.14 and a Particle size of 90.73. Moreover, the “Encapsulation rate, %” value in data set [2] is 89.02%.

In the case of `CCCCCCCCCCCCCOC(=O)CCCN(CCCCO)CCCN(CCCC(=O)OCCCCCCCCCCCCC)CCCC(=O)OCCCCCCCCCCCCC` [Example 65, Ditridecyl 4,4'-((3-((4-hydroxybutyl)(4-oxo-4-(tridecyloxy)butyl)amino)propyl)azanediyl)dibutanoate], in the data set on DC2.4 cells, the “Positive rate, %” value is recorded as 96.80%. Moreover, in data set [3], the viability at 24 h is 60.3%. In data set [1], this molecule showed a PDI of 0.20 and a Particle size of 90.10. The “Encapsulation rate, %” value in data set [2] was determined as 96.31%.

Consider `CCCCCCCCCCCCCOC(=O)CCCCCCN(CCCCO)CCCN(CCCCCCC(=O)OCCCCCCCCCCCCC)CCCCCCC(=O)OCCCCCCCCCCCCC` [Example 35], for which the “Positive rate, %” value with DC2.4 cells worked out at 98.59%. Besides, in data set [3], the viability at 24 h was 97.2%. In data set [1], this molecule showed a PDI of 0.12 and a Particle size of 92.18. Further, the “Encapsulation rate, %” value in data set [2] is reported as 99.50%.
